IC50 data for 33 compounds are collected here from US8846912B2, “Tartrate salts of quinazoline based EGFR inhibitors containing a zinc binding moiety” (Curis, Inc., priority 2007, dated 2014).

This test has as its target HDAC. The test is described as follows: HDAC fluorimetric enzyme assay (HeLa nuclear extract). The test is classed as biochemical. On the procedure:
HDAC inhibitors were screened using an HDAC fluorimetric assay kit (AK-500, Biomol, Plymouth Meeting, Pa.).
Each assay was setup as follows: Defrosted all kit components and kept on ice until use. […] Prepared dilutions of Trichostatin A (TSA, positive control) and tested compounds in assay buffer (5× of final concentration). Diluted Fluor de Lys™ Substrate in assay buffer to 100 uM (50 fold=2× final). Diluted Fluor de Lys™ developer concentrate 20-fold (e.g. 50 μl plus 950 μl Assay Buffer) in cold assay buffer. Second, diluted the 0.2 mM Trichostatin A 100-fold in the 1× Developer (e.g. 10 μl in 1 ml; final Trichostatin A concentration in the 1× Developer=2 μM; final concentration after addition to HDAC/Substrate reaction=1 μM). Added Assay buffer, diluted trichostatin A or test inhibitor to appropriate wells of the microtiter plate. Added diluted HeLa extract or other HDAC sample to all wells except for negative controls.

Take `COc1cc2ncnc(Nc3ccc(F)c(Cl)c3)c2cc1OCC(=O)NO` [Compound 1, 2-(4-(3-Chloro-4-fluorophenylamino)-7-methoxyquinazolin-6-yloxy)-N-hydroxyacetamide]: the IC50 was over 10 µM.

The compound `COc1cc2ncnc(Nc3ccc(F)c(Cl)c3)c2cc1OCCC(=O)NO` [Compound 2] registered a concentration for half-maximal inhibition (IC50) of over 10 µM.

For the compound `COc1cc2ncnc(Nc3ccc(F)c(Cl)c3)c2cc1OCCCC(=O)NO` [Compound 3, 4-(4-(3-Chloro-4-fluorophenylamino)-7-methoxyquinazolin-6-yloxy)-N-hydroxybutanamide], the IC50 is over 10 µM. Under `COc1cc2ncnc(Nc3ccc(F)c(Cl)c3)c2cc1OCCCCC(=O)NO` [Compound 4] stands 0.1 to 1 µM; under `COc1cc2ncnc(Nc3ccc(F)c(Cl)c3)c2cc1OCCCCCC(=O)NO` [Compound 5], under 0.1 µM; under `C#Cc1cccc(Nc2ncnc3cc(OC)c(OCC(=O)NO)cc23)c1` [Compound 7, 2-(4-(3-ethynylphenylamino)-7-methoxyquinazolin-6-yloxy)-N-hydroxyacetamide], over 10 µM. Under `C#Cc1cccc(Nc2ncnc3cc(OC)c(OCCC(=O)NO)cc23)c1` [Compound 8] stands over 10 µM; under `C#Cc1cccc(Nc2ncnc3cc(OC)c(OCCCC(=O)NO)cc23)c1` [Compound 9, 4-(4-(3-ethynylphenylamino)-7-methoxyquinazolin-6-yloxy)-N-hydroxybutanamide], 0.1 to 1 µM. The compound `C#Cc1cccc(Nc2ncnc3cc(OC)c(OCCCCC(=O)NO)cc23)c1` [Compound 10, 5-(4-(3-Ethynylphenylamino)-7-methoxyquinazolin-6-yloxy)-N-hydroxypentanamide] had an IC50 of 0.1 to 1 µM.

With `C#Cc1cccc(Nc2ncnc3cc(OC)c(OCCCCCC(=O)NO)cc23)c1` [Compound 11, 6-(4-(3-ethynylphenylamino)-7-methoxyquinazolin-6-yloxy)-N-hydroxyhexanamide], the IC50 was under 0.1 µM. In the case of `O=C(COc1ccc2ncnc(Nc3ccc(F)c(Cl)c3)c2c1)NO` [Compound 13, 2-(4-(3-Chloro-4-fluorophenylamino)quinazolin-6-yloxy)-N-hydroxyacetamide], the IC50 was over 10 µM.

With `O=C(CCOc1ccc2ncnc(Nc3ccc(F)c(Cl)c3)c2c1)NO` [Compound 14], the IC50 is 1 to 10 µM. The compound `O=C(CCCOc1ccc2ncnc(Nc3ccc(F)c(Cl)c3)c2c1)NO` [Compound 15, 4-(4-(3-chloro-4-fluorophenylamino)quinazolin-6-yloxy)-N-Hydroxybutanamide] came in with an IC50 of under 0.1 µM. Regarding `O=C(CCCCOc1ccc2ncnc(Nc3ccc(F)c(Cl)c3)c2c1)NO` [Compound 16, 5-(4-(3-chloro-4-fluorophenylamino)quinazolin-6-yloxy)-N-hydroxypentanamide], the IC50 fell in the range of 0.1 to 1 µM.

Compound `O=C(CCCCCOc1ccc2ncnc(Nc3ccc(F)c(Cl)c3)c2c1)NO` [Compound 17, 6-(4-(3-Chloro-4-fluorophenylamino)quinazolin-6-yloxy)-N-hydroxyhexanamide] returned an IC50 of under 0.1 µM. On to `O=C(CCCCCCOc1ccc2ncnc(Nc3ccc(F)c(Cl)c3)c2c1)NO` [Compound 18, 7-(4-(3-chloro-4-fluorophenylamino)quinazolin-6-yloxy)-N-hydroxyheptanamide], for which the IC50 is under 0.1 µM. `C#Cc1cccc(Nc2ncnc3ccc(OCC(=O)NO)cc23)c1` [Compound 19, 2-(4-(3-ethynylphenylamino)quinazolin-6-yloxy)-N-hydroxyacetamide] came in with a half-maximal inhibitory concentration (IC50) of over 10 µM. Take `C#Cc1cccc(Nc2ncnc3ccc(OCCCC(=O)NO)cc23)c1` [Compound 21, 4-(4-(3-ethynylphenylamino)quinazolin-6-yloxy)-N-hydroxybutanamide]: the 50% inhibitory concentration (IC50) lay in the range of 1 to 10 µM. `C#Cc1cccc(Nc2ncnc3ccc(OCCCCC(=O)NO)cc23)c1` [Compound 22]: the concentration for half-maximal inhibition (IC50) was under 0.1 µM. Next, `C#Cc1cccc(Nc2ncnc3ccc(OCCCCCC(=O)NO)cc23)c1` [Compound 23, 6-(4-(3-ethynylphenylamino)quinazolin-6-yloxy)-N-hydroxyhexanamide]: under 0.1 µM. In turn, `C#Cc1cccc(Nc2ncnc3ccc(OCCCCCCC(=O)NO)cc23)c1` [Compound 24, 7-(4-(3-ethynylphenylamino)quinazolin-6-yloxy)-N-hydroxyheptanamide] yielded an IC50 of under 0.1 µM. Take `COCCOc1cc2ncnc(Nc3ccc(F)c(Cl)c3)c2cc1OCCCCCCC(=O)NO` [Compound 30, 7-(4-(3-Chloro-4-fluorophenylamino)-7-(2-methoxyethoxy)quinazolin-6-yloxy)-N-hydroxyheptanamide]: the IC50 is under 0.1 µM. In turn, `C#Cc1cccc(Nc2ncnc3cc(OCCOC)c(OCCCCCCC(=O)NO)cc23)c1` [Compound 36, 7-(4-(3-Ethynylphenylamino)-7-(2-methoxyethoxy)quinazolin-6-yloxy)-N-hydroxyheptanamide] had an IC50 of under 0.1 µM.

`COc1cc2ncnc(Nc3ccc(F)c(Cl)c3)c2cc1NC(=O)CCCC(=O)NO` [Compound 38, N^1-(4-(3-chloro-4-fluorophenylamino)-7-methoxyquinazolin-6-yl)-N^5-hydroxyglutaramide] gave an IC50 of 1 to 10 µM.

As for `COc1cc2ncnc(Nc3ccc(F)c(Cl)c3)c2cc1NC(=O)CCCCCCC(=O)NO` [Compound 40, N^1-(4-(3-chloro-4-fluorophenylamino)-7-methoxyquinazolin-6-yl)-N^8-hydroxyoctanediamide], the IC50 was under 0.1 µM. Compound `C#Cc1cccc(Nc2ncnc3cc(OC)c(NC(=O)CCCC(=O)NO)cc23)c1` [Compound 42, N^1-(4-(3-ethynylphenylamino)-7-methoxyquinazolin-6-yl)-N^5-hydroxyglutaramide] showed an IC50 of 0.1 to 1 µM.

In turn, `C#Cc1cccc(Nc2ncnc3cc(OC)c(NC(=O)CCCCC(=O)NO)cc23)c1` [Compound 43, N^1-(4-(3-ethynylphenylamino)-7-methoxyquinazolin-6-yl)-N^6-hydroxyadipamide] had an IC50 of 0.1 to 1 µM. Turning to `C#Cc1cccc(Nc2ncnc3cc(OC)c(NC(=O)CCCCCCC(=O)NO)cc23)c1` [Compound 44, N^1-(4-(3-ethynylphenylamino)-7-methoxyquinazolin-6-yl)-N^8-hydroxyoctanediamide], the IC50 was under 0.1 µM.

Compound `Nc1cc(Br)ccc1NC(=O)COc1ccc2ncnc(Nc3ccc(F)c(Cl)c3)c2c1` [Compound 45] registered a half-maximal inhibitory concentration (IC50) of over 10 µM. Next, `C[C@@H](Nc1ncnc2ccc(OCCCCCC(=O)NO)cc12)c1ccccc1` [Compound 50]: 0.1 to 1 µM; `O=C(/C=C/c1ccc(OCCOc2ccc3ncnc(Nc4ccc(F)c(Cl)c4)c3c2)cc1)NO` [Compound 63]: 0.1 to 1 µM; `COc1cc2ncnc(Nc3ccc(F)c(Cl)c3)c2cc1OCCOc1ccc(/C=C/C(=O)NO)cc1` [Compound 66, (E)-3-(4-(2-(4-(3-chloro-4-fluorophenylamino)-7-methoxyquinazolin-6-yloxy)ethoxy)phenyl)-N-hydroxyacrylamide]: 0.1 to 1 µM. On to `COCCOc1cc2ncnc(Nc3ccc(F)c(Cl)c3)c2cc1NC(=O)CCCC(=O)NO` [Compound 68, N^1-(4-(3-chloro-4-fluorophenylamino)-7-(2-methoxyethoxy)quinazolin-6-yl)-N^5-hydroxyglutaramide], for which the IC50 lay in the range of 1 to 10 µM.

For orientation: IC50 means the midpoint of a concentration-inhibition curve. A low value points to greater potency.
